# Measured values published in US8937091B2 (Japan Science and Technology Agency, priority 2009, dated 2015).
# Like-named read-outs stand apart in the source and are kept apart here.
# Columns and labels:
# TGase = TGase (Cavia porcellus, UniProt P08587); assay type: biochemical; conditions: for TG level: level with DMSO control designated as 100
# Procedure: An enzyme reaction solution (0.1 ml) (100 mM HEPES-NaOH, pH 7.5, 1 mM CaCl2, 20 μM monodansyl cadaverine, 0.05 mg/ml N,N-dimethylcasein, 5 μg/ml TGase) was introduced into wells of a 96-well plate (Nunc, 96 Well Black Plate with Clear Bottom). A test compound was added in concentrations of 0.3, 1.0, 3.0, 10, and 30 μM. The solution and the compound were sufficiently mixed while preventing foaming. The plate was set in the fluorescence drug screening system FDSS 3000 (Hamamatsu Photonics K.K.). TGase-inhibiting activity of the compound was calculated by assaying changes in fluorescence wavelength (at 340 nm) per unit time. […] The assay level at which TGase activity decreased by half in the presence of the test compound was designated as TG 50.
# Hereafter, the numerals in parentheses written after the TG level, the SOCE level, and the IICR level correspond to the test compound concentrations. The number following the name of each title compound used in the Examples below represents a compound ID number designated arbitrarily by the present inventors.
# [1] = test system: SOCE (store operated calcium entry) in CHO cells; experiment: Assay of SOCE (store operated calcium entry)-inhibiting action; assay type: cell-based, Chinese hamster; conditions: CHO cells, thapsigargin
# Summary of the method: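 CHO cells in calcium-free BSS received compound, then 1 μM thapsigargin 2 min later to deplete stores; after 9 min, 2 mM calcium chloride (final) added. Percent inhibition of the rise in intracellular calcium determined at various compound concentrations.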
# [2] = test system: IICR (IP3 induced calcium release) in CHO cells; experiment: Assay of IICR (IP3 induced calcium release)-inhibiting action; assay type: cell-based, Chinese hamster; conditions: for IICR level (percentage of inhibition): CHO cells, 10 μM ATP
# Summary of the method: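 Inhibition (%) of the intracellular calcium increase triggered by 10 μM ATP, measured in CHO cells in BSS with calcium. Compound given 1 min after the buffer exchange and 2 min before ATP; values reported per compound concentration.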
Molecule,TG level (TGase; test compound 3 μmol),TG level (TGase; test compound 30 μmol),SOCE level (percentage of inhibition) ([1]; test compound 30 μmol) [%],SOCE level (percentage of inhibition) ([1]; test compound 100 μmol) [%],IICR level (percentage of inhibition) ([2]; test compound 10 μmol) [%],IICR level (percentage of inhibition) ([2]; test compound 30 μmol) [%],IICR level (percentage of inhibition) ([2]; test compound 100 μmol) [%],TG level (TGase; test compound 10 μmol),SOCE level (percentage of inhibition) ([1]; test compound 10 μmol) [%],TG-activity-inhibiting action or protein-crosslinking-inhibiting action (in words) (TGase),IICR-inhibiting activity compared with SOCE-inhibiting activity (in words) [2]
2-(N-isopropyl-2-hydroxyethyl)aminoethylferrocenylketone [Example 287],100,60.8,0,10,20,40,40,,,,
2-(N-isopropylbenzyl)aminoethyl-1-methyl-2-pyrrylketone [Example 195],73,6.4,0,10,0,0,0,62.6,0,,
2-(N-isopropylbenzyl)aminoethylferrocenylketone [Example 286],99.2,54.2,0,0,50,80,50,,,,
2-bis(N-2-hydroxyethyl)aminoethylferrocenylketone [Example 288],94.9,44.1,10,40,40,50,60,,,,
O=C(CCNCCSSCCNCCC(=O)c1ccc(Br)s1)c1ccc(Br)s1 [Example 340],0.8,4.3,18,65,0,40,60,2.5,0,,
"CC(C)(C)N(CCC(=O)c1ccc(C#N)cc1)Cc1ccccc1 [Example 8789, 2-(N-t-butylbenzyl)aminoethyl-4-cyanophenylketone]",,,,,,,,,,strongly,higher than SOCE-inhibiting activity
"CC(C)N(CCC(=O)c1ccc(C#N)cc1)Cc1ccccc1 [Example 8803, 2-(N-benzylisopropyl)aminoethyl-4-cyanophenylketone]",,,,,,,,,,strongly,higher than SOCE-inhibiting activity
"Cc1ccsc1C(=O)CCN(Cc1ccccc1)C(C)(C)C [Example 8816, 2-(N-benzyl-t-butyl)aminoethyl-3-methyl-2-thienylketone]",,,,,,,,,,strongly,higher than SOCE-inhibiting activity
"Cc1csc(C(=O)CCN(Cc2ccccc2)C(C)(C)C)c1 [Example 8817, 2-(N-benzyl-t-butyl)aminoethyl-4-methyl-2-thienylketone]",,,,,,,,,,strongly,higher than SOCE-inhibiting activity
"Cc1ccc(C(=O)CCN(Cc2ccccc2)C(C)(C)C)s1 [Example 8818, 2-(N-benzyl-t-butyl)aminoethyl-5-methyl-2-thienylketone]",,,,,,,,,,strongly,higher than SOCE-inhibiting activity
"CCCCN(CCCC)CCC(=O)c1ccc(Br)s1 [Example 8848, 2-(N,N-di-n-butyl)aminoethyl-5-bromo-2-thienylketone]",,,,,,,,,,strongly,higher than SOCE-inhibiting activity
"CCC(C)N(CCC(=O)c1ccc(Br)s1)C(C)CC (centres unmarked) [Example 8849, 2-(N,N-di-sec-butyl)aminoethyl-5-bromo-2-thienylketone]",,,,,,,,,,strongly,higher than SOCE-inhibiting activity
